Series [1] is described as follows: Shelf stability of indocyanine green dissolved in water-free organic solvent. In kind it is physicochemical. The conditions noted are these: absence of water, room temperature. The text has this:
Through experimentation, it has been determined that the biggest cause of instability within ICG solutions to be nothing other than water and the second most recognizable factor is temperature. Therefore, with the instability factors identified the present invention identifies by way of experimentation with other solutions within which ICG is stable. An embodiment of the present invention utilizes organic liquids to create shelf stable ICG solutions. The present invention is a method of creating a shelf-stable, liquid, indocyanine green solution.
More importantly, the type of organic solvent selected is not the important factor for stability—only the absence of water is required.
When creating the solution, the manufacturing method is to add the ICG to the solvent(s) and stir until it dissolves. Thereafter the solution is loading in an airtight sealed container, thereby preventing the introduction of ambient air, which may contain water vapor, into the container.

For series [2] the following is noted: after mixing with water; cited from earlier work.

Consider `CC1(C)C(/C=C/C=C/C=C/C=C2\N(CCCCS(=O)(=O)O)c3ccc4ccccc4c3C2(C)C)=[N+](CCCCS(=O)(=O)[O-])c2ccc3ccccc3c21` [indocyanine green], for which the results for the “shelf stable (shelf life of solution)” value in series [1] and in series [1] (listed as ICG) were “up to 1 year” and “up to one”, respectively. In series [2], the “shelf life of ICG solutions (unstable)” value is recorded as “a few days”.
